Key:
Assay type in all cases: functional, organism-based
[1] = system: Trypanosoma brucei brucei; test: Antimicrobial activity against Trypanosoma brucei brucei
Toxoplasma gondii = test: Antimicrobial activity against Toxoplasma gondii
[2] = system: Trypanosoma brucei rhodesiense; test: Antimicrobial activity against Trypanosoma brucei rhodesiense
Trichomonas vaginalis = test: Antimicrobial activity against Trichomonas vaginalis
Leishmania infantum = test: Antimicrobial activity against Leishmania infantum
Leishmania donovani = test: Antimicrobial activity against Leishmania donovani

Row | Structure (SMILES) | IC50 [1] [µM] | IC50 [2] [µM] | further results
1 | CC(C)(C)OC(=O)NC(=N)c1ccc(NC(=O)Cn2cnc([N+](=O)[O-])c2)cc1 | 200 |  | 
2 | O=[N+]([O-])c1cccc(Sc2cc3ccccc3[nH]2)c1 |  |  | IC50 (Toxoplasma gondii; Toxoplasma gondii): 2 µM
3 | c1ccc2cc(Sc3cc4ccccc4[nH]3)ccc2c1 |  |  | IC50 (Toxoplasma gondii; Toxoplasma gondii): 4 µM
4 | COc1ccc(Sc2cc3ccccc3[nH]2)cc1 |  |  | IC50 (Toxoplasma gondii; Toxoplasma gondii): 17 µM
5 | [O-][S+](c1ccccc1)c1cc2ccccc2[nH]1 (stereo not given) |  |  | IC50 (Toxoplasma gondii; Toxoplasma gondii): 50 µM
6 | N=C(NCCCN(CCNC(=N)NC1CCCCC1)C(=N)NC1CCCCC1)NC1CCCCC1 |  | 21 | 
7 | C1CN(N2CCNCC2)CCN1 |  | 17 | 
8 | CC(C)(C)CC(=O)N1CCN(N2CCN(C(=O)CC(C)(C)C)CC2)CC1 |  | 5 | 
9 | C1CNC(N2CCN(N3CCN(C4=NCCN4)CC3)CC2)=N1 |  | 28 | 
10 | CC(C)(C)OC(=O)NCCNC(=S)N1CCN(N2CCN(C(=S)NCCNC(=O)OC(C)(C)C)CC2)CC1 |  | 14 | 
11 | O=C(CCN1CCCN(C(=O)OCc2ccccc2)C1)OCc1ccccc1 |  | 3 | 
12 | NCCCNCCN |  | 49 | 
13 | O=C(O)c1ccccc1Nc1ccc2nc(Cl)sc2c1 |  |  | IC50 (Trichomonas vaginalis): 17 µM; IC50 (Leishmania infantum): 5 µM
14 | CN(C)c1ccc(Nc2nc3ccc(Nc4ccccc4C(=O)O)cc3s2)cc1 |  |  | IC50 (Trichomonas vaginalis): 26 µM; IC50 (Leishmania infantum): 68 µM
15 | O=C(O)c1ccccc1Nc1ccc2nc(NCCO)sc2c1 |  |  | IC50 (Trichomonas vaginalis): 158 µM; IC50 (Leishmania infantum): 4 µM
16 | COc1cc(NS(C)(=O)=O)ccc1Nc1nc2ccc(Nc3ccccc3C(=O)O)cc2s1 |  |  | IC50 (Trichomonas vaginalis): 22 µM; IC50 (Leishmania infantum): 13 µM
17 | O=C(O)c1ccccc1Nc1ccc2nc(Nc3cccc(O)c3)sc2c1 |  |  | IC50 (Trichomonas vaginalis): 134 µM; IC50 (Leishmania infantum): 237 µM
18 | CC(=O)Nc1nc2ccc(Nc3ccccc3C(=O)O)cc2s1 |  |  | IC50 (Trichomonas vaginalis): 18 µM; IC50 (Leishmania infantum): 18 µM
19 | Nc1nc2ccc(Nc3ccccc3C(=O)O)cc2s1 |  |  | IC50 (Trichomonas vaginalis): 125 µM; IC50 (Leishmania infantum): 2 µM
20 | CN(C)c1nc2ccc(Nc3ccccc3C(=O)O)cc2s1 |  |  | IC50 (Trichomonas vaginalis): 102 µM; IC50 (Leishmania infantum): 80 µM
21 | CCN(CC)c1nc2ccc(Nc3ccccc3C(=O)O)cc2s1 |  |  | IC50 (Trichomonas vaginalis): 3 µM; IC50 (Leishmania infantum): 33 µM
22 | O=C(O)c1ccccc1Nc1ccc2nc(N3CCCCC3)sc2c1 |  |  | IC50 (Trichomonas vaginalis): 83 µM; IC50 (Leishmania infantum): 15 µM
23 | CCN(CC)CCCNc1nc2ccc(Nc3ccccc3C(=O)O)cc2s1 |  |  | IC50 (Trichomonas vaginalis): 134 µM; IC50 (Leishmania infantum): 2 µM
24 | CCCNc1nc2ccc(Nc3ccccc3C(=O)O)cc2s1 |  |  | IC50 (Trichomonas vaginalis): 76 µM; IC50 (Leishmania infantum): 39 µM
25 | O=C(O)c1ccccc1Nc1ccc2nc(Nc3ccccc3)sc2c1 |  |  | IC50 (Trichomonas vaginalis): 41 µM; IC50 (Leishmania infantum): 30 µM
26 | N=C(N)c1ccc(NC(=O)Cn2ccnc2[N+](=O)[O-])cc1 | 200 | 6 | 
27 | N=C(N)c1ccc(NC(=O)Cn2cnc([N+](=O)[O-])c2)cc1 | 200 | 80 | 

Row | Structure (SMILES) | IC50 [1] [µM] | IC50 [2] [µM] | further results
28 | O=C(O)COCCOCCOc1cc(Cl)c(Cl)cc1Cl |  |  | IC50 (Toxoplasma gondii; Toxoplasma gondii): 1 µM
29 | c1ccc2[nH]c(Sc3cccc4ccccc34)cc2c1 |  |  | IC50 (Toxoplasma gondii; Toxoplasma gondii): 3 µM
30 | O=[N+]([O-])c1ccc(Sc2cc3ccccc3[nH]2)cc1 |  |  | IC50 (Toxoplasma gondii; Toxoplasma gondii): 14 µM
31 | CNc1nc(NC)nc(NN)n1 | 200 |  | 
32 | Nc1nc(N)nc(N/N=C\c2ccc([N+](=O)[O-])s2)n1 | 1 |  | 
33 | Nc1nc(N)nc(N/N=C\c2ccco2)n1 | 29 | 13 | 
34 | Nc1nc(N)nc(N/N=C\c2cccs2)n1 | 89 | 10 | 
35 | CNc1nc(NC)nc(N/N=C\c2ccc([N+](=O)[O-])o2)n1 | 15 |  | 
36 | CSc1c(Sc2ccc([N+](=O)[O-])cc2)[nH]c2ccccc12 |  |  | IC50 (Toxoplasma gondii; Toxoplasma gondii): 28 µM
37 | NC(=O)c1nnn(Cc2cc(Cl)c(C(=O)C34CC5CC(CC(C5)C3)C4)c(Cl)c2)c1N |  |  | IC50 (Toxoplasma gondii; Toxoplasma gondii): 15 µM
38 | c1ccc(Sc2cc3ccccc3[nH]2)cc1 |  |  | IC50 (Toxoplasma gondii; Toxoplasma gondii): 1 µM
39 | CC(C)(C)OC(=O)NC(=N)c1ccc(NC(=O)Cn2ccnc2[N+](=O)[O-])cc1 | 119 |  | 
40 | CCCN(CCC)c1ccc(S(=O)(=O)Nc2ccccc2)cc1[N+](=O)[O-] | 20 |  | IC50 (Leishmania donovani): 43 µM
41 | CCCN(CCC)c1ccc(S(=O)(=O)N([N+](=O)[O-])[N+](=O)[O-])cc1 | 12 |  | IC50 (Leishmania donovani): 65 µM
42 | NNc1nc(N)nc(N)n1 | 200 |  | 
43 | N/N=C/c1ccc([N+](=O)[O-])o1 | 14 | 2 | 
44 | CCCN(CCC)c1c([N+](=O)[O-])cc(S(=O)(=O)N(C)C)cc1[N+](=O)[O-] | 6 |  | IC50 (Leishmania donovani): 100 µM
45 | CCCN(CCC)c1c([N+](=O)[O-])cc(S(=O)(=O)NC2CC2)cc1[N+](=O)[O-] | 3 |  | 
46 | CCCN(CCC)c1c([N+](=O)[O-])cc(S(=O)(=O)Nc2cccc(OC)c2)cc1[N+](=O)[O-] | 1 |  | IC50 (Leishmania donovani): 8 µM
47 | CCCNS(=O)(=O)c1cc([N+](=O)[O-])c(N(CCC)CCC)c([N+](=O)[O-])c1 | 9 |  | 
48 | CCCN(CCC)c1c([N+](=O)[O-])cc(S(=O)(=O)N(CC)CC)cc1[N+](=O)[O-] | 8 |  | 
49 | O=C(NCCCN1CCN(C(=O)OCc2ccccc2)C1)OCc1ccccc1 |  | 1 | 
50 | CN(CCCNC1=NCCN1)CCNC1=NCCN1 |  | 2 | 
51 | CCCN(CCC)c1c([N+](=O)[O-])cc(S(=O)(=O)Nc2ccc(Cl)c(Cl)c2)cc1[N+](=O)[O-] | 8 |  | 
52 | CCCN(CCC)c1c([N+](=O)[O-])cc(S(=O)(=O)N2CCCC2)cc1[N+](=O)[O-] | 7 |  | 
53 | CCCN(CCC)c1c([N+](=O)[O-])cc(S(=O)(=O)N2CCOCC2)cc1[N+](=O)[O-] | 100 |  | IC50 (Leishmania donovani): 100 µM
54 | CCCN(CCC)c1c([N+](=O)[O-])cc(S(=O)(=O)Nc2cccc(C)c2)cc1[N+](=O)[O-] | 2 |  | 

Row | Structure (SMILES) | IC50 [1] [µM] | IC50 [2] [µM] | further results
55 | CCCN(CCC)c1c([N+](=O)[O-])cc(S(=O)(=O)Nc2cccc(Cl)c2)cc1[N+](=O)[O-] | 2 |  | IC50 (Leishmania donovani): 6 µM
56 | CCCN(CCC)c1c([N+](=O)[O-])cc(S(=O)(=O)NC)cc1[N+](=O)[O-] | 5 |  | IC50 (Leishmania donovani): 100 µM
57 | CCCN(CCC)c1c([N+](=O)[O-])cc(S(=O)(=O)NCC)cc1[N+](=O)[O-] | 5 |  | IC50 (Leishmania donovani): 100 µM
58 | CCCN(CCC)c1c([N+](=O)[O-])cc(S(=O)(=O)NC(C)C)cc1[N+](=O)[O-] | 4 |  | IC50 (Leishmania donovani): 100 µM
59 | CCN(CC)c1c([N+](=O)[O-])cc(S(=O)(=O)Nc2ccccc2)cc1[N+](=O)[O-] | 3 |  | 
60 | CCCCCCN(CCCCCC)S(=O)(=O)c1cc([N+](=O)[O-])c(N(CCC)CCC)c([N+](=O)[O-])c1 | 50 |  | IC50 (Leishmania donovani): 100 µM
61 | CCCN(CCC)c1c([N+](=O)[O-])cc(S(=O)(=O)Nc2ccccn2)cc1[N+](=O)[O-] | 9 |  | 
62 | CN(CCCNC(=O)OCc1ccccc1)CCNC(=O)OCc1ccccc1 |  | 21 | 
63 | N=C(N)NCCCNCCNC(=N)N |  | 20 | 
64 | O=C(NCCCN(CCO)CCNC(=O)OCc1ccccc1)OCc1ccccc1 |  | 4 | 
65 | CC(=O)OCCN(CCCNC(=O)OCc1ccccc1)CCNC(=O)OCc1ccccc1 |  | 30 | 
66 | CN(CCN)CCCN |  | 69 | 
67 | NCCCN(CCN)CCc1c[nH]c2ccccc12 |  | 16 | 
68 | O=C(NCCCN(CCNC(=O)OCc1ccccc1)CCc1c[nH]c2ccccc12)OCc1ccccc1 |  | 84 | 
69 | C(CNCCNC1=NCCN1)CNC1=NCCN1 |  | 11 | 
70 | N[C@@H]1[C@H]2CN(c3nc4c(cc3F)c(=O)c(C(=O)O)cn4-c3ccc(F)cc3F)C[C@@H]12 (stereo in doubt; form 1) [TROVAFLOXACIN] |  |  | IC50 (Toxoplasma gondii; Toxoplasma gondii): 3 µM
71 | N[C@@H]1[C@H]2CN(c3nc4c(cc3F)c(=O)c(C(=O)O)cn4-c3ccc(F)cc3F)C[C@@H]12 (stereo in doubt; form 2) [TROVAFLOXACIN] |  |  | IC50 (Toxoplasma gondii): 2 µM
72 | O=[N+]([O-])c1ccc(/C=N/O)o1 [NIFUROXIME] | 1 | 1 | 
73 | CC1CS(=O)(=O)CCN1/N=C/c1ccc([N+](=O)[O-])o1 (stereo not given) [NIFURTIMOX] | 6 | 2 | 
74 | C[C@@H]1[C@@H]2[C@@H](N)[C@@H]2CN1c1nc2c(cc1F)c(=O)c(C(=O)O)cn2-c1ccc(F)cc1F [TROVAFLOXACIN1] |  |  | IC50 (Toxoplasma gondii; Toxoplasma gondii): 1 µM
75 | CN[C@H]1[C@@H]2CN(c3nc4c(cc3F)c(=O)c(C(=O)O)cn4-c3ccc(F)cc3F)C[C@@H]21 [TROVAFLOXACIN2] |  |  | IC50 (Toxoplasma gondii; Toxoplasma gondii): 1 µM
76 | Cc1c(F)c(N2C[C@@H]3[C@@H](N)[C@@H]3C2)nc2c1c(=O)c(C(=O)O)cn2-c1ccc(F)cc1F [TROVAFLOXACIN3] |  |  | IC50 (Toxoplasma gondii; Toxoplasma gondii): 1 µM
77 | N[C@@H]1[C@H]2CN(c3nc4c(cc3F)c(=O)c(C(=O)O)cn4C3CC3)C[C@@H]12 [TROVAFLOXACIN4] |  |  | IC50 (Toxoplasma gondii; Toxoplasma gondii): 2 µM
78 | N[C@@H]1[C@H]2CN(c3cc4c(cc3F)c(=O)c(C(=O)O)cn4-c3ccc(F)cc3F)C[C@@H]12 [TROVAFLOXACIN6] |  |  | IC50 (Toxoplasma gondii; Toxoplasma gondii): 3 µM
79 | C[C@@H]1[C@@H]2[C@@H](CN)[C@@H]2CN1c1nc2c(cc1F)c(=O)c(C(=O)O)cn2-c1ccc(F)cc1F [TROVAFLOXACIN7] |  |  | IC50 (Toxoplasma gondii; Toxoplasma gondii): 3 µM
80 | NC12CC1CN(c1nc3c(cc1F)c(=O)c(C(=O)O)cn3-c1ccc(F)cc1F)C2 (stereo not given) [TROVAFLOXACIN8] |  |  | IC50 (Toxoplasma gondii; Toxoplasma gondii): 7 µM

Reference: ChEMBL document CHEMBL1212812, “Multi-target spectral moment QSAR versus ANN for antiparasitic drugs against different parasite species” (Bioorg Med Chem, 2010)
